The values that follow come from the supplement of paper PMC11208160.
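Note: IS621 recombinase and bridge RNA in Escherichia coli cells.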

The nature of this data set: recombinant barcode read abundance after kanamycin selection (control-corrected) (log10(CPM+1)); higher = more efficient recombination; sequences stand for … in AGTGCAGAGAAAATCGGCCAGTTTTCTCTGCCTGCAGTCCGCATGCCGT…AGATTTATGCAGCGGACTGCCTTTCTCCCAAAGTGATAAACCGGACAGTATCATGGACCGGTTTTCCCGGTAATCCGTATTTGCAAGGTTGGTTTCACT; site = the 11-nt target. A digest of the protocol: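 Targets and IS621 bridge RNA target-binding loops were paired in oligos, each with a promoter, a barcode and the J23119-driven first 104 bridge RNA bases. A vector carrying the remaining 73 bp and a T7-inducible recombinase received these by Gibson cloning, and the pool was co-electroporated into E. coli with a donor plasmid. Duplicate plates contained chloramphenicol/ampicillin LB agar (control) or chloramphenicol/ampicillin/kanamycin with 0.1 mM IPTG. Recombination efficiency comes from averaged, control-corrected counts per million of recombinant-junction barcodes, reported as log10(CPM+1).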
As to “CCGCCAGCTTGGGTTCTAACCTGTTGCCT (site CCGCCCGCTAG)”, the “recombinant barcode read abundance (log10)” value is 0.0231.

With “CCGCCAGCTTGGGTTCTAACCTGTTGCCT (site CCGCCGGCTAG)”, the “recombinant barcode read abundance (log10)” value amounted to 0.0999.

Regarding “CCGCCAGCTTGGGTTCTAACCTGTTGCCT (site CCGCCTGCTAG)”, the “recombinant barcode read abundance (log10)” value turned out to be 0.186.

With “CCGCCCGCTTGGGTTCTAACCTGTTGCCT (site CCGCCAGCTAG)”, the “recombinant barcode read abundance (log10)” value was 0.00972.

“CCGCCCGCTTGGGTTCTAACCTGTTGCCT (site CCGCCCGCTAG)”: the “recombinant barcode read abundance (log10)” value came to 0.473.

With “CCGCCCGCTTGGGTTCTAACCTGTTGCCT (site CCGCCGGCTAG)”, the “recombinant barcode read abundance (log10)” value is 0.083.

Turning to “CCGCCCGCTTGGGTTCTAACCTGTTGCCT (site CCGCCTGCTAG)”, the “recombinant barcode read abundance (log10)” value turned out to be 0.0828.

As for “CCGCCCTCTTGGGTTCTAACCTGTTGCCT (site CAGCCCTCTAG)”, the “recombinant barcode read abundance (log10)” value amounted to 0.0642.

As to “CCGCCCTCTTGGGTTCTAACCTGTTGCCT (site CCGCCCTCTAG)”, the “recombinant barcode read abundance (log10)” value is 1.04.

As for “CCGCCCTCTTGGGTTCTAACCTGTTGCCT (site CGGCCCTCTAG)”, the “recombinant barcode read abundance (log10)” value is 0.105.

With “CCGCCCTCTTGGGTTCTAACCTGTTGCCT (site CTGCCCTCTAG)”, the “recombinant barcode read abundance (log10)” value came to 0.0291.

On to “CCGCCTCCTTGGGTTCTAACCTGTTGCGA (site CCGCCTCCTTC)”, for which the “recombinant barcode read abundance (log10)” value was found to be 0.616.

For the sequence “CCGCCTCCTTGGGTTCTAACCTGTTGCGA (site CCGCGTCCTTA)”, the “recombinant barcode read abundance (log10)” value was 0.0484.

As for “CCGCGCCCTTGGGTTCTAACCTGTTGCAT (site ACGCGCCCTGT)”, the “recombinant barcode read abundance (log10)” value is 0.0166.

As for “CCGCGCCCTTGGGTTCTAACCTGTTGCAT (site CCGCGCCCTAT)”, the “recombinant barcode read abundance (log10)” value was determined as 0.504.

On to “CCGCGCTCTTGGGTTCTAACCTGTTGCCT (site CCGCGCACTAG)”, for which the “recombinant barcode read abundance (log10)” value was found to be 0.106.

On to “CCGCGCTCTTGGGTTCTAACCTGTTGCCT (site CCGCGCTCTAG)”, for which the “recombinant barcode read abundance (log10)” value is 0.641.

For the sequence “CCGCGCTCTTGGGTTCTAACCTGTTGCTG (site ACGAGCTCTCA)”, the “recombinant barcode read abundance (log10)” value amounted to 0.

Consider “CCGCGCTCTTGGGTTCTAACCTGTTGCTG (site CCGCGCTCTCA)”, for which the “recombinant barcode read abundance (log10)” value is 0.379.

On to “CCGCGGCCTTGGGTTCTAACCTGTTGCCT (site ACGCGGCCTAG)”, for which the “recombinant barcode read abundance (log10)” value amounted to 0.0555.

Consider “CCGCGGCCTTGGGTTCTAACCTGTTGCCT (site CCGCGGCCTAG)”, for which the “recombinant barcode read abundance (log10)” value was determined as 0.459.

Turning to “CCGCGGCCTTGGGTTCTAACCTGTTGCCT (site GCGCGGCCTAG)”, the “recombinant barcode read abundance (log10)” value was 0.0271.

Consider “CCGCGGCCTTGGGTTCTAACCTGTTGCCT (site TCGCGGCCTAG)”, for which the “recombinant barcode read abundance (log10)” value turned out to be 0.0221.

Take “CCGCTACCTTGGGTTCTAACCTGTTGCCT (site CAGCTACCTAG)”: the “recombinant barcode read abundance (log10)” value is 0.109.

Consider “CCGCTACCTTGGGTTCTAACCTGTTGCCT (site CCGCTACCTAG)”, for which the “recombinant barcode read abundance (log10)” value came to 0.956.

Take “CCGCTACCTTGGGTTCTAACCTGTTGCCT (site CGGCTACCTAG)”: the “recombinant barcode read abundance (log10)” value came out at 0.103.

On to “CCGCTACCTTGGGTTCTAACCTGTTGCCT (site CTGCTACCTAG)”, for which the “recombinant barcode read abundance (log10)” value came to 0.19.

“CCGCTGTCTTGGGTTCTAACCTGTTGCCT (site CCGCTGTCTAG)”: the “recombinant barcode read abundance (log10)” value is 0.394.

For “CCGCTGTCTTGGGTTCTAACCTGTTGCCT (site CCTCTGGCTAG)”, the “recombinant barcode read abundance (log10)” value is 0.167.

Consider “CCGGACCCTTGGGTTCTAACCTGTTGCTG (site CCGGACCCTCA)”, for which the “recombinant barcode read abundance (log10)” value was determined as 2.49.

Take “CCGGACCCTTGGGTTCTAACCTGTTGCTG (site CCGTGCCCTCA)”: the “recombinant barcode read abundance (log10)” value was 0.336.

Turning to “CCGGATGCTTGGGTTCTAACCTGTTGCCT (site CCGAATGCTAG)”, the “recombinant barcode read abundance (log10)” value was 0.272.

“CCGGATGCTTGGGTTCTAACCTGTTGCCT (site CCGCATGCTAG)”: the “recombinant barcode read abundance (log10)” value worked out at 0.117.

On to “CCGGATGCTTGGGTTCTAACCTGTTGCCT (site CCGGATGCTAG)”, for which the “recombinant barcode read abundance (log10)” value was found to be 0.775.

For the sequence “CCGGATGCTTGGGTTCTAACCTGTTGCCT (site CCGTATGCTAG)”, the “recombinant barcode read abundance (log10)” value was determined as 0.0746.

As for “CCGGATTCTTGGGTTCTAACCTGTTGCCT (site CCGGATTCTAG)”, the “recombinant barcode read abundance (log10)” value was found to be 1.69.

As for “CCGGATTCTTGGGTTCTAACCTGTTGCCT (site CCGGTTGCTAG)”, the “recombinant barcode read abundance (log10)” value stood at 0.369.

“CCGGTAACTTGGGTTCTAACCTGTTGCCT (site CCGGTAACTAG)”: the “recombinant barcode read abundance (log10)” value was 0.45.

Consider “CCGGTAACTTGGGTTCTAACCTGTTGCCT (site CCTGTAGCTAG)”, for which the “recombinant barcode read abundance (log10)” value was determined as 0.142.

On to “CCGGTAGCTTGGGTTCTAACCTGTTGCCA (site CCGGTAGCTTG)”, for which the “recombinant barcode read abundance (log10)” value is 0.443.

“CCGGTAGCTTGGGTTCTAACCTGTTGCCA (site GCAGTAGCTTG)”: the “recombinant barcode read abundance (log10)” value was 0.556.

On to “CCGGTATCTTGGGTTCTAACCTGTTGCCT (site CCGATATCTAG)”, for which the “recombinant barcode read abundance (log10)” value was 0.0308.

With “CCGGTATCTTGGGTTCTAACCTGTTGCCT (site CCGCTATCTAG)”, the “recombinant barcode read abundance (log10)” value was determined as 0.688.

For “CCGGTATCTTGGGTTCTAACCTGTTGCCT (site CCGGTATCTAG)”, the “recombinant barcode read abundance (log10)” value came to 0.197.

On to “CCGGTATCTTGGGTTCTAACCTGTTGCCT (site CCGTTATCTAG)”, for which the “recombinant barcode read abundance (log10)” value was 0.0727.

“CCGGTGCCTTGGGTTCTAACCTGTTGCCT (site CAGGTGCCTAG)”: the “recombinant barcode read abundance (log10)” value was found to be 0.0703.

As to “CCGGTGCCTTGGGTTCTAACCTGTTGCCT (site CCGGTGCCTAG)”, the “recombinant barcode read abundance (log10)” value was determined as 2.29.

On to “CCGGTGCCTTGGGTTCTAACCTGTTGCCT (site CGGGTGCCTAG)”, for which the “recombinant barcode read abundance (log10)” value was 1.03.

Consider “CCGGTGCCTTGGGTTCTAACCTGTTGCCT (site CTGGTGCCTAG)”, for which the “recombinant barcode read abundance (log10)” value worked out at 0.21.

For the sequence “CCGTAAGCTTGGGTTCTAACCTGTTGCCT (site CCGTAAACTAG)”, the “recombinant barcode read abundance (log10)” value was determined as 0.139.

On to “CCGTAAGCTTGGGTTCTAACCTGTTGCCT (site CCGTAACCTAG)”, for which the “recombinant barcode read abundance (log10)” value worked out at 0.0711.

Take “CCGTAAGCTTGGGTTCTAACCTGTTGCCT (site CCGTAAGCTAG)”: the “recombinant barcode read abundance (log10)” value came out at 0.105.

Turning to “CCGTAAGCTTGGGTTCTAACCTGTTGCCT (site CCGTAATCTAG)”, the “recombinant barcode read abundance (log10)” value turned out to be 0.0655.

In the case of “CCGTACTCTTGGGTTCTAACCTGTTGCCT (site CCGTACTCTAG)”, the “recombinant barcode read abundance (log10)” value was 1.22.

For “CCGTACTCTTGGGTTCTAACCTGTTGCCT (site CCGTAGTCTAG)”, the “recombinant barcode read abundance (log10)” value is 0.0897.

With “CCGTCTACTTGGGTTCTAACCTGTTGCCT (site CAGTCTACTAG)”, the “recombinant barcode read abundance (log10)” value amounted to 0.0408.

As for “CCGTCTACTTGGGTTCTAACCTGTTGCCT (site CCGTCTACTAG)”, the “recombinant barcode read abundance (log10)” value was 0.0187.

Take “CCGTCTACTTGGGTTCTAACCTGTTGCCT (site CGGTCTACTAG)”: the “recombinant barcode read abundance (log10)” value is 0.0454.

On to “CCGTCTACTTGGGTTCTAACCTGTTGCCT (site CTGTCTACTAG)”, for which the “recombinant barcode read abundance (log10)” value came out at 0.082.

Turning to “CCGTCTACTTGGGTTCTAACCTGTTGCTA (site CCGTCTACTAA)”, the “recombinant barcode read abundance (log10)” value turned out to be 0.02.

“CCGTCTACTTGGGTTCTAACCTGTTGCTA (site CCGTCTACTCA)”: the “recombinant barcode read abundance (log10)” value is 0.161.

Take “CCGTCTACTTGGGTTCTAACCTGTTGCTA (site CCGTCTACTGA)”: the “recombinant barcode read abundance (log10)” value stood at 0.125.

Turning to “CCGTCTACTTGGGTTCTAACCTGTTGCTA (site CCGTCTACTTA)”, the “recombinant barcode read abundance (log10)” value worked out at 0.259.

As to “CCGTGCCCTTGGGTTCTAACCTGTTGCGT (site CCGTGCCCTAC)”, the “recombinant barcode read abundance (log10)” value turned out to be 1.92.

On to “CCGTGCCCTTGGGTTCTAACCTGTTGCGT (site TCGTGCCCTAC)”, for which the “recombinant barcode read abundance (log10)” value came out at 0.0224.

With “CCGTGCCCTTGGGTTCTAACCTGTTGCTG (site CCGGACCCTCA)”, the “recombinant barcode read abundance (log10)” value stood at 0.111.

For “CCGTGCCCTTGGGTTCTAACCTGTTGCTG (site CCGTGCCCTCA)”, the “recombinant barcode read abundance (log10)” value amounted to 1.62.

Consider “CCTAAAACTTGGGTTCTAACCTGTTGCCT (site CCTAAAACTAG)”, for which the “recombinant barcode read abundance (log10)” value was 0.0998.

With “CCTAAAACTTGGGTTCTAACCTGTTGCCT (site GAACTCTCTTA)”, the “recombinant barcode read abundance (log10)” value was 0.0257.

Turning to “CCTAACCCTTGGGTTCTAACCTGTTGCGT (site CCTAAACCTAC)”, the “recombinant barcode read abundance (log10)” value came to 0.39.

Consider “CCTAACCCTTGGGTTCTAACCTGTTGCGT (site CCTAACCCTAC)”, for which the “recombinant barcode read abundance (log10)” value was determined as 1.85.

Take “CCTAACCCTTGGGTTCTAACCTGTTGCGT (site CCTAAGCCTAC)”: the “recombinant barcode read abundance (log10)” value worked out at 0.0306.

In the case of “CCTAACCCTTGGGTTCTAACCTGTTGCGT (site CCTAATCCTAC)”, the “recombinant barcode read abundance (log10)” value worked out at 0.381.

For the sequence “CCTAAGACTTGGGTTCTAACCTGTTGCCA (site CCTAAGACTAG)”, the “recombinant barcode read abundance (log10)” value came out at 0.08.

Consider “CCTAAGACTTGGGTTCTAACCTGTTGCCA (site CCTAAGACTCG)”, for which the “recombinant barcode read abundance (log10)” value was 0.133.

On to “CCTAAGACTTGGGTTCTAACCTGTTGCCA (site CCTAAGACTGG)”, for which the “recombinant barcode read abundance (log10)” value came to 0.0159.

Turning to “CCTAAGACTTGGGTTCTAACCTGTTGCCA (site CCTAAGACTTG)”, the “recombinant barcode read abundance (log10)” value was 0.
